Measurements from publication PMC13128454, “Mutant p53 protein accumulation is selectively targetable by proximity-inducing drugs” (Nature Chemical Biology, 2025).
Read-outs that look alike come from different tables or passages of the source.

Columns and labels:
Type in all cases: cell-based
MCF7 cells = test: CellTiter-Glo cell viability
Protocol: (§1) Cells were plated in 384-well plates (typically 1,500 cells per well) with varying concentrations of compounds, with a total volume of 50 μl per well. CTG reagent was added (25 μl) to the solutions, mixed and read out using an EnVision 2105 multimode plate reader.

HepG2 cells = test: CellTiter-Glo cell viability
Protocol: as §1

[1] = CellTiter-Glo cell viability; settings: human, read-out: mean_norm (normalized viability)
Protocol: as §1

MFE296 cells = test: CellTiter-Glo cell viability
Protocol: as §1

Huh7 cells = test: CellTiter-Glo cell viability
Protocol: as §1

[2] = Homo sapiens, 96 h, 4 day treatment

Question: For `CC[C@@H]1C(=O)N(C)c2cnc(Nc3ccc(C(=O)NCCOCCOCCOCCOCCC(=O)N4CCC(Nc5cccc6c5cc(C#CCNc5ccc(S(C)(=O)=O)cc5OC)n6CC(F)(F)F)CC4)cc3OC)nc2N1C1CCCC1` [p53-01, PMV6-PEG4-BI2536], which p5301_AUC_to_10uM (MCF7 cells) is on record?
Answer: 0.5585

Question: And the “mean_norm (normalized viability)” value (MCF7 cells; Concentration 39.0625, 4 day)?
Answer: 1.014

Question: And the “mean_norm (normalized viability)” value (MCF7 cells; Concentration 78.125, 4 day)?
Answer: 0.9684

Question: What about the “mean_norm (normalized viability)” value (MCF7 cells; Concentration 156.25, 4 day) of the same molecule?
Answer: 0.9955

Question: What about the “mean_norm (normalized viability)” value (MCF7 cells; Concentration 312.5, 4 day) of the same molecule?
Answer: 1.001

Question: What about the “mean_norm (normalized viability)” value (MCF7 cells; Concentration 625, 4 day) of the same molecule?
Answer: 0.97

Question: And the IC50 (MCF7 cells; [2])?
Answer: 2.81 µM

Question: And the p5301_AUC_to_10uM (HepG2 cells)?
Answer: 0.9503

Question: What about the “mean_norm (normalized viability)” value (HepG2 cells; Concentration 39.0625, 4 day) of the same molecule?
Answer: 0.9684

Question: And the “mean_norm (normalized viability)” value (HepG2 cells; Concentration 78.125, 4 day)?
Answer: 0.9673

Question: And the “mean_norm (normalized viability)” value (HepG2 cells; Concentration 156.25, 4 day)?
Answer: 0.8732

Question: What about the “mean_norm (normalized viability)” value (HepG2 cells; Concentration 312.5, 4 day) of the same molecule?
Answer: 0.9657

Question: What about the “mean_norm (normalized viability)” value (HepG2 cells; Concentration 625, 4 day) of the same molecule?
Answer: 0.8895

Question: What about the “mean_norm (normalized viability)” value (HepG2 cells; Concentration 1250, 4 day) of the same molecule?
Answer: 0.9491

Question: And the “mean_norm (normalized viability)” value (HepG2 cells; Concentration 2500, 4 day)?
Answer: 0.8943

Question: What about the “mean_norm (normalized viability)” value (HepG2 cells; Concentration 5000, 4 day) of the same molecule?
Answer: 1.008

Question: What about the “mean_norm (normalized viability)” value (HepG2 cells; Concentration 10000, 4 day) of the same molecule?
Answer: 0.9189

Question: What about the “mean_norm (normalized viability)” value (HepG2 cells; Concentration 20000, 4 day) of the same molecule?
Answer: 0.9567

Question: And the IC50 (HepG2 cells; [2])?
Answer: > 20 µM

Question: What about the viability at 4 day ([1]; DU145 cells, Concentration 39.0625, 4 day) of the same molecule?
Answer: 104%

Question: And the viability at 4 day ([1]; DU145 cells, Concentration 78.125, 4 day)?
Answer: 101%

Question: And the viability at 4 day ([1]; DU145 cells, Concentration 156.25, 4 day)?
Answer: 97.4%

Question: And the viability at 4 day ([1]; DU145 cells, Concentration 312.5, 4 day)?
Answer: 96.2%

Question: What about the viability at 4 day ([1]; DU145 cells, Concentration 625, 4 day) of the same molecule?
Answer: 97.2%

Question: What about the viability at 4 day ([1]; DU145 cells, Concentration 1250, 4 day) of the same molecule?
Answer: 98.7%

Question: What about the viability at 4 day ([1]; DU145 cells, Concentration 2500, 4 day) of the same molecule?
Answer: 98.2%

Question: What about the viability at 4 day ([1]; DU145 cells, Concentration 5000, 4 day) of the same molecule?
Answer: 91.3%

Question: What about the viability at 4 day ([1]; DU145 cells, Concentration 10000, 4 day) of the same molecule?
Answer: 79.5%

Question: What about the viability at 4 day ([1]; DU145 cells, Concentration 20000, 4 day) of the same molecule?
Answer: 76.4%

Question: And the viability at 4 day ([1]; Huh7 cells, Concentration 39.0625, 4 day)?
Answer: 110%

Question: And the viability at 4 day ([1]; Huh7 cells, Concentration 78.125, 4 day)?
Answer: 104%

Question: What about the viability at 4 day ([1]; Huh7 cells, Concentration 156.25, 4 day) of the same molecule?
Answer: 109%

Question: And the viability at 4 day ([1]; Huh7 cells, Concentration 312.5, 4 day)?
Answer: 104%

Question: And the viability at 4 day ([1]; Huh7 cells, Concentration 625, 4 day)?
Answer: 108%

Question: What about the viability at 4 day ([1]; Huh7 cells, Concentration 1250, 4 day) of the same molecule?
Answer: 104%

Question: What about the viability at 4 day ([1]; Huh7 cells, Concentration 2500, 4 day) of the same molecule?
Answer: 107%

Question: What about the viability at 4 day ([1]; Huh7 cells, Concentration 5000, 4 day) of the same molecule?
Answer: 100%

Question: And the viability at 4 day ([1]; Huh7 cells, Concentration 10000, 4 day)?
Answer: 102%

Question: And the viability at 4 day ([1]; Huh7 cells, Concentration 20000, 4 day)?
Answer: 83.1%

Question: What about the viability at 4 day ([1]; LNCaP cells, LNCAP, Concentration 39.0625, 4 day) of the same molecule?
Answer: 96.3%

Question: What about the viability at 4 day ([1]; LNCaP cells, LNCAP, Concentration 78.125, 4 day) of the same molecule?
Answer: 93%

Question: What about the viability at 4 day ([1]; LNCaP cells, LNCAP, Concentration 156.25, 4 day) of the same molecule?
Answer: 94.9%

Question: And the viability at 4 day ([1]; LNCaP cells, LNCAP, Concentration 312.5, 4 day)?
Answer: 97.9%

Question: What about the viability at 4 day ([1]; LNCaP cells, LNCAP, Concentration 625, 4 day) of the same molecule?
Answer: 108%

Question: What about the viability at 4 day ([1]; LNCaP cells, LNCAP, Concentration 1250, 4 day) of the same molecule?
Answer: 102%

Question: And the viability at 4 day ([1]; LNCaP cells, LNCAP, Concentration 2500, 4 day)?
Answer: 87.3%

Question: What about the viability at 4 day ([1]; MCF7 cells, Concentration 1250, 4 day) of the same molecule?
Answer: 88.6%

Question: What about the viability at 4 day ([1]; MCF7 cells, Concentration 2500, 4 day) of the same molecule?
Answer: 64.8%

Question: What about the viability at 4 day ([1]; MCF7 cells, Concentration 5000, 4 day) of the same molecule?
Answer: 49.8%

Question: What about the viability at 4 day ([1]; MCF7 cells, Concentration 10000, 4 day) of the same molecule?
Answer: 36.9%

Question: And the viability at 4 day ([1]; MCF7 cells, Concentration 20000, 4 day)?
Answer: 29.2%

Question: What about the viability at 4 day ([1]; NUGC-3 cells, NUGC3, Concentration 39.0625, 4 day) of the same molecule?
Answer: 101%

Question: What about the viability at 4 day ([1]; NUGC-3 cells, NUGC3, Concentration 78.125, 4 day) of the same molecule?
Answer: 98%

Question: What about the viability at 4 day ([1]; NUGC-3 cells, NUGC3, Concentration 156.25, 4 day) of the same molecule?
Answer: 103%

Question: What about the viability at 4 day ([1]; NUGC-3 cells, NUGC3, Concentration 312.5, 4 day) of the same molecule?
Answer: 98.2%

Question: What about the viability at 4 day ([1]; NUGC-3 cells, NUGC3, Concentration 625, 4 day) of the same molecule?
Answer: 91.1%

Question: And the viability at 4 day ([1]; NUGC-3 cells, NUGC3, Concentration 1250, 4 day)?
Answer: 79.9%

Question: What about the viability at 4 day ([1]; NUGC-3 cells, NUGC3, Concentration 2500, 4 day) of the same molecule?
Answer: 53.4%

Question: And the viability at 4 day ([1]; NUGC-3 cells, NUGC3, Concentration 5000, 4 day)?
Answer: 42.5%

Question: What about the viability at 4 day ([1]; NUGC-3 cells, NUGC3, Concentration 10000, 4 day) of the same molecule?
Answer: 39.3%

Question: And the viability at 4 day ([1]; NUGC-3 cells, NUGC3, Concentration 20000, 4 day)?
Answer: 32.6%

Question: What about the p5301_AUC_to_10uM (MFE296 cells) of the same molecule?
Answer: 0.5186

Question: What about the “mean_norm (normalized viability)” value (MFE296 cells; Concentration 39.0625, 4 day) of the same molecule?
Answer: 1.0133

Question: What about the “mean_norm (normalized viability)” value (MFE296 cells; Concentration 78.125, 4 day) of the same molecule?
Answer: 1.079

Question: What about the “mean_norm (normalized viability)” value (MFE296 cells; Concentration 156.25, 4 day) of the same molecule?
Answer: 1.012

Question: And the “mean_norm (normalized viability)” value (MFE296 cells; Concentration 312.5, 4 day)?
Answer: 1.043

Question: What about the “mean_norm (normalized viability)” value (MFE296 cells; Concentration 625, 4 day) of the same molecule?
Answer: 0.9978

Question: What about the “mean_norm (normalized viability)” value (MFE296 cells; Concentration 1250, 4 day) of the same molecule?
Answer: 0.7559

Question: And the “mean_norm (normalized viability)” value (MFE296 cells; Concentration 2500, 4 day)?
Answer: 0.6581

Question: What about the “mean_norm (normalized viability)” value (MFE296 cells; Concentration 5000, 4 day) of the same molecule?
Answer: 0.4955

Question: And the “mean_norm (normalized viability)” value (MFE296 cells; Concentration 10000, 4 day)?
Answer: 0.246

Question: What about the IC50 (MFE296 cells; Homo sapiens, MFE-296, 96 h, 4 day treatment) of the same molecule?
Answer: 4.32 µM

Question: And the p5301_AUC_to_10uM (Huh7 cells)?
Answer: 1

Question: What about the IC50 (Huh7 cells; Homo sapiens, Huh-7, 96 h, 4 day treatment) of the same molecule?
Answer: > 20 µM
